# Measurements taken from patent US7202069B2, “(R)-2-octanol dehydrogenases, methods for producing the enzymes, DNA encoding the enzymes, and methods for producing alcohols using the enzymes” (Daicel Chemical Industries, Ltd., priority 2000, dated 2007).
# Read-outs that look alike come from different tables or passages of the source.
# How the values were obtained:
# [1] = system: (R)-2-octanol dehydrogenase; assay: Residual (R)-2-octanol dehydrogenase activity after treatment with reagents; type: biochemical, Pichia finlandica
# Experimental: The (R)-2-octanol dehydrogenase was treated with various reagents at 30° C. for 30 minutes and the (R)-2-octanol dehydrogenase activity was measured.
# [2] = system: (R)-2-octanol dehydrogenase; assay: Oxidation activity of (R)-2-octanol dehydrogenase on various alcohols, NAD+ as coenzyme; type: biochemical, Pichia finlandica; conditions: oxidation activity of (R)-2-octanol taken as 100
# Experimental: (§1) On the other hand, oxidation activity on (R)-2-octanol can be measured as follows. The activity can be validated by incubating at 30° C. the reaction mixture containing Tris-HCl buffer (pH 8.5, 50 mM), 2.5 mM NAD^+, 5 mM (R)-2-octanol, and the enzyme and by measuring increase of absorbance at 340 nm accompanying generation of NADH. 1 U was defined as the amount of the enzyme catalyzing generation of 1 μmol of NADH for 1 minute.
# The (R)-2-octanol dehydrogenase was reacted with various alcohols and its oxidation activity was measured.
# [3] = system: (R)-2-octanol dehydrogenase; assay: Reduction activity of the enzyme of Example 3 on various ketones, NADH as coenzyme; type: biochemical, Pichia finlandica
# Experimental: (§2) In the present invention, reduction activity on 4-chloroacetoacetic acid ester can be measured as follows. The activity can be validated by incubating at 30° C. the reaction mixture containing potassium phosphate buffer (pH 6.5, 100 mM), 0.2 mM NADH, 20 mM ethyl 4-chloroacetoacetate, and the enzyme and by measuring decrease of absorbance at 340 nm accompanying decrease of NADH. 1 U was defined as the amount of the enzyme catalyzing decrease of 1 μmol of NADH for 1 minute. Quantification of proteins can be done by dye binding method using the protein assay kit (BIORAD).
# The enzyme of Example 3 was reacted with various ketones and its reduction activity was measured.
# [4] = system: (R)-2-octanol dehydrogenase; assay: Oxidation activity of (R)-2-octanol dehydrogenase on various alcohols, NAD+ as coenzyme; type: biochemical, Candida utilis; conditions: oxidation activity of (R)-2-octanol taken as 100
# Experimental: as §1
# The (R)-2-octanol dehydrogenase was reacted with various alcohols and its oxidation activity was measured. […] As a result, the relative activity was 6.7% for (S)-2-octanol, 8.3% for 2-propanol, and 86% for (R)-1-phenylethanol.
# [5] = system: (R)-2-octanol dehydrogenase; assay: Reduction activity of the enzyme of Example 35 on various ketones, NADH as coenzyme; type: biochemical, Candida utilis
# Experimental: as §2
# The enzyme of Example 35 was also reacted with various ketones and its reduction activity was measured. […] As a result, the relative activity was 26.6% for 2-octanone and 25.3% for acetophenone.
# [6] = system: (R)-2-octanol dehydrogenase; assay: Activation of (R)-2-octanol dehydrogenase by reagents; type: biochemical, Pichia finlandica; conditions: for Relative activity: reagent 1 mM, activity without reagents = 100
# Experimental: The activation effect of (R)-2-octanol dehydrogenase in various reagents was measured.
# [7] = reagent 1 mM, 30° C. for 30 minutes, enzyme treated without reagents = 100
# [8] = reduction activity of 4-chloroacetoacetic acid ethyl ester taken as 100, NADH as coenzyme
# [9] = 4-chloroacetoacetic acid ethyl ester taken as 100, NADH
# [10] = treated at 30° C. for 30 minutes
# [11] = reagent 0.01 mM, 30° C. for 30 minutes, enzyme treated without reagents = 100
molecule,measurement,setting,value
O[C@H](CS)[C@H](O)CS (racemic) [Dithiothreitol],Residual activity,[1]; [7],123%
CCCCCCCCO [1-Octanol],"relative activity, oxidation reaction",[2]; NAD+ as coenzyme,1.72
CC(O)COc1ccccc1 (centres unmarked) [1-Phenoxy-2-propanol],"relative activity, oxidation reaction",[2]; NAD+ as coenzyme,15.5
CC(=O)COc1ccccc1 [1-Phenoxy-2-propanone],"relative activity, reduction reaction",[3]; [8],54.2
CCC(C)=O [2-Butanone],"relative activity, reduction reaction",[3]; [8],7.99
CCCCC(C)O (centres unmarked) [2-Hexanol],"relative activity, oxidation reaction",[2]; NAD+ as coenzyme,54.1
CCCCCCC(C)O (centres unmarked) [2-Octanol],"relative activity, oxidation reaction",[4]; NAD+ as coenzyme,8.3
same,"relative activity, oxidation reaction",[2]; NAD+ as coenzyme,77.8
CCCCCCC(C)=O [2-Octanone],"relative activity, reduction reaction",[5]; [9],26.6%
same,"relative activity, reduction reaction",[5]; [8],26.6
same,"relative activity, reduction reaction",[3]; [9],31.2%
same,"relative activity, reduction reaction",[3]; [8],31.2
CC(C)O [2-Propanol],"relative activity, oxidation reaction",[4]; NAD+,8.3%
same,"relative activity, oxidation reaction",[2]; NAD+,6.8%
same,"relative activity, oxidation reaction",[2]; NAD+ as coenzyme,6.79
CC(=O)CCO [4-Hydroxy-2-butanone],"relative activity, reduction reaction",[3]; [8],0.691
"C[C@@H](O)CCO [(R)-1,3-butanediol]","relative activity, oxidation reaction",[2]; NAD+ as coenzyme,1.29
"OCC[C@@H](O)c1ccccc1 [(R)-1-phenyl-1,3-propanediol]","relative activity, oxidation reaction",[2]; NAD+ as coenzyme,0.344
C[C@@H](O)c1ccccc1 [(R)-1-phenylethanol],"relative activity, oxidation reaction",[4]; NAD+,86%
same,"relative activity, oxidation reaction",[4]; NAD+ as coenzyme,86.7
same,"relative activity, oxidation reaction",[2]; NAD+,255%
same,"relative activity, oxidation reaction",[2]; NAD+ as coenzyme,255
CCCCCC[C@@H](C)O [(R)-2-octanol],"relative activity, oxidation reaction",[4]; NAD+ as coenzyme,100
same,"relative activity, oxidation reaction",[2]; NAD+ as coenzyme,100
"C[C@H](O)CCO [(S)-1,3-butanediol]","relative activity, oxidation reaction",[2]; NAD+ as coenzyme,0.516
"OCC[C@H](O)c1ccccc1 [(S)-1-phenyl-1,3-propanediol]","relative activity, oxidation reaction",[2]; NAD+ as coenzyme,0.258
C[C@H](O)c1ccccc1 [(S)-1-phenylethanol],"relative activity, oxidation reaction",[4]; NAD+ as coenzyme,6.7
same,"relative activity, oxidation reaction",[2]; NAD+ as coenzyme,1.81
CCCCCC[C@H](C)O [(S)-2-octanol],"relative activity, oxidation reaction",[4]; NAD+,6.7%
same,"relative activity, oxidation reaction",[4]; NAD+ as coenzyme,6.7
same,"relative activity, oxidation reaction",[2]; NAD+,4.7%
same,"relative activity, oxidation reaction",[2]; NAD+ as coenzyme,4.73
CC(C)=O [Acetone],"relative activity, reduction reaction",[3]; [8],1.82
CC(=O)c1ccccc1 [Acetophenone],"relative activity, reduction reaction",[5]; [9],25.3%
same,"relative activity, reduction reaction",[5]; [8],25.3
same,"relative activity, reduction reaction",[3]; [9],45%
same,"relative activity, reduction reaction",[3]; [8],45.3
O.O.[Ba+2].[Cl-].[Cl-] [BaCl2Ñ2H2O],Residual activity,[1]; [7],102%
"[Ca+2].[Cl-].[Cl-] [CaCl2Ñ2H2O, calcium chloride]",Residual activity,[1],174%
same,"effect of reagent on the enzyme (inhibition / stabilization), in words",[1],stabilized
O.O.O.O.O.O.[Cl-].[Cl-].[Co+2] [CoCl2Ñ6H2O],Residual activity,[1]; [7],99%
O=S(=O)([O-])[O-].[Cu+2] [CuSO4],Residual activity,[1]; [7],100%
OC1CCCCC1 [Cyclohexanol],"relative activity, oxidation reaction",[2]; NAD+ as coenzyme,0.172
"O=C([O-])CN(CCN(CC(=O)[O-])CC(=O)O)CC(=O)O.[Na+].[Na+] [EDTAÑ2Na, ethylenediaminetetraacetic acid 2Na]",Residual activity,[1]; [7],81%
same,"effect of reagent on the enzyme (inhibition / stabilization), in words",[1]; [10],slightly inhibited
CCO [Ethanol],"relative activity, oxidation reaction",[2]; NAD+ as coenzyme,0.688
CCOC(=O)CC(=O)CCl [Ethyl 4-chloroacetoacetate],"relative activity, reduction reaction",[5]; [8],100
same,"relative activity, reduction reaction",[3]; [8],100
CCOC(=O)C[C@@H](C)O [Ethyl (R)-3-hydroxybutyrate],"relative activity, oxidation reaction",[2]; NAD+ as coenzyme,41.1
CCOC(=O)C[C@@H](O)CCl [Ethyl (R)-4-chloro-3-hydroxybutyrate],"relative activity, oxidation reaction",[2]; NAD+ as coenzyme,0.172
CCOC(=O)C[C@H](C)O [Ethyl (S)-3-hydroxybutyrate],"relative activity, oxidation reaction",[2]; NAD+ as coenzyme,1.03
CCOC(=O)C[C@H](O)CCl [Ethyl (S)-4-chloro-3-hydroxybutyrate],"relative activity, oxidation reaction",[2]; NAD+ as coenzyme,2.24
CCOC(=O)CC(C)=O [Ethyl acetoacetate],"relative activity, reduction reaction",[3]; [8],106
[Cl][Fe][Cl] [FeCl2],Residual activity,[1]; [7],93%
"[Cl][Hg][Cl] [HgCl2, mercury chloride]",Residual activity,[1]; [11],62%
same,"effect of reagent on the enzyme (inhibition / stabilization), in words",[1]; [10],slightly inhibited
[Cl-].[K+] [KCl],Residual activity,[1]; [7],106%
"[Cl-].[Cl-].[Mg+2] [MgCl2Ñ6H2O, magnesium chloride]",Relative activity,[6],122%
same,Residual activity,[1],185%
same,"effect of reagent on the enzyme (inhibition / stabilization), in words",[1],stabilized
O=S(=O)([O-])[O-].[Mg+2] [MgSO4],Relative activity,[6],125%
CCN1C(=O)C=CC1=O [N-ethylmaleimide],Residual activity,[1]; [7],147%
same,"effect of reagent on the enzyme (inhibition / stabilization), in words",[1]; [10],stabilized
Cl.NO [NH2OHÑHCl],Residual activity,[1]; [11],99%
O.O.O.O.O.O.[Cl][Ni][Cl] [NiCl2Ñ6H2O],Residual activity,[1]; [7],103%
O=S(=O)(F)Cc1ccccc1 [Phenylmethylsulfonyl fluoride],Residual activity,[1]; [7],111%
CCC=O [Propionaldehyde],"relative activity, reduction reaction",[3]; [8],18.4
O=c1c(O)c(-c2ccc(O)c(O)c2)oc2cc(O)cc(O)c12 [Quercetin],Residual activity,"[1]; reagent 0.1 mM, 30° C. for 30 minutes, enzyme treated without reagents = 100",99%
[Cl-].[Cl-].[Zn+2] [ZnCl2],Relative activity,[6],105%
same,Residual activity,[1]; [7],96%
O.O.O.O.O.O.O.O=S(=O)([O-])[O-].[Zn+2] [ZnSO4Ñ7H2O],Relative activity,[6],110%
[Mg] [magnesium],"activation of the enzyme, in words",[6],activated
[Mn+2] [manganese],"activation of the enzyme, in words",[6],activated
c1cnc2c(c1)ccc1cccnc12 [o-Phenanthroline],Residual activity,[1]; [7],162%
same,"effect of reagent on the enzyme (inhibition / stabilization), in words",[1]; [10],stabilized
O=S(=O)(O)O [sulphate ion],"activation of the enzyme, in words",[6],activated
[Zn+2] [zinc],"activation of the enzyme, in words",[6],activated
(R)-2-butanol,"relative activity, oxidation reaction",[2]; NAD+ as coenzyme,49.3
(S)-2-butanol,"relative activity, oxidation reaction",[2]; NAD+ as coenzyme,7.31
MnSO4Ñ4-5H2O,Relative activity,[6],121%
manganese chloride [MnCl2Ñ4H2O],Relative activity,[6],114%
same,Residual activity,[1]; [7],185%
same,"effect of reagent on the enzyme (inhibition / stabilization), in words",[1]; [10],stabilized
